Test results taken from US5075287A, “Muramyl peptide derivatives and immunoregulating compositions containing them” (priority 1989, dated 1991).
Read-outs that look alike come from different tables or passages of the source.

How the values were obtained:
[1] = test system: influenza HA vaccine (B/Nagasaki/1/87 strain); assay type: in vivo, female CDF1 mice; conditions: Experiment 2, 8000-fold dilution
[2] = test system: hepatitis B virus surface antigen (HBs); assay: Hepatitis-vaccine enhancing activity (adjuvant activity): anti-HBs IgG in mouse serum by ELISA; assay type: in vivo, female CDF1 mice; conditions: Experiment 2, 2000-fold dilution
Experimental: A compound of the present invention was dissolved in lipidmicrosphere (1 mg/ml). On the other hand, a solution of hepatitis B virus surface antigen (HBs) in physiological saline was prepared (50 μg/ml). The above solutions in equal amounts were mixed to prepare a test solution. A control solution was prepared by the exclusion of the compound of the present invention from said test solution. A mixture of a suspension of aluminium hydroxide gel in physiological saline (1 mg/ml) and said hepatitis vaccine preparation in equal amounts was prepared as another control solution. The test solution (0.2 ml) was intraperitoneally administered to each mouse in one group consisting of seven female CDF1 mice.
Blood samples were collected from the fundus ocluli vein of each mouse every week after the administration and then centrifuged to obtain serums. Three weeks after the administration, 0.2 ml of the test liquid was intraperitoneally administered again to each mouse for secondary stimulation. Then blood collecting was conducted every week to obtain serums after the application of the secondary stimulation, in the same manner as that described above.
The amount of the IgG antibodies against the hepatitis B virus surface antigens (HBs) in the serums thus obtained was determined with an ELISA method.

[3] = 4 W (after secondary stimulation at 3 weeks)
[4] = 5 W (after secondary stimulation at 3 weeks)

Row | Structure (SMILES) | Anti HA serum antigen value (average value ± S.D.) ([1]; 1 W) | Anti HA serum antigen value (average value ± S.D.) ([1]; 2 W) | Anti HA serum antigen value (average value ± S.D.) ([1]; 3 W) | Anti HA serum antigen value (average value ± S.D.) [1, 3] | Anti HA serum antigen value (average value ± S.D.) [1, 4] | Anti-HBs IgG antibody level in serum (ELISA absorbance at 415 nm) ([2]; 1 W) | Anti-HBs IgG antibody level in serum (ELISA absorbance at 415 nm) ([2]; 2 W) | Anti-HBs IgG antibody level in serum (ELISA absorbance at 415 nm) ([2]; 3 W) | Anti-HBs IgG antibody level in serum (ELISA absorbance at 415 nm) [2, 3] | Anti-HBs IgG antibody level in serum (ELISA absorbance at 415 nm) [2, 4]
1 | CCCCCCCCCCCCCC(=O)O[C@H](CCCCCCCCCCC)CC(=O)O[C@H]1O[C@H](CO)[C@@H](O)[C@H](O[C@H](C)C(=O)N[C@@H](C)C(=O)N[C@H](CCC(=O)OC)C(N)=O)[C@H]1NC(C)=O [Example 25, N-[2-0-{2-Acetamido-2,3-dideoxy-1-0-((3R)-3-tetradecanoyloxytetradecanoyl}-α-D-glucopyranos-3-yl}-D-lactoyl]-L-alanyl-D-isoglutamine methylester] | 0.009 ± 0.001 O.D 415 nm | 0.109 ± 0.002 O.D 415 nm | 0.149 ± 0.004 O.D 415 nm | 0.623 ± 0.019 O.D 415 nm | 0.719 ± 0.021 O.D 415 nm | 0.004 ± 0.002 O.D 415 nm | 0.021 ± 0.001 O.D 415 nm | 0.031 ± 0.004 O.D 415 nm | 0.402 ± 0.011 O.D 415 nm | 0.434 ± 0.021 O.D 415 nm
2 | CCCCCCCCCCCCCCCCCC(=O)OC[C@H]1O[C@H](OC(=O)C[C@@H](CCCCCCCCCCC)OC(=O)CCCCCCCCCCCCCCC)[C@H](NC(C)=O)[C@@H](O[C@H](C)C(=O)N[C@@H](C)C(=O)N[C@H](CCC(=O)OC)C(N)=O)[C@@H]1O [Example 18, N-[2-0-{2-Acetamido-2,3-dideoxy-6-0octadecanoyl-1-0-((3R)-3-hexadecanoyloxytetradecanoyl)-α-D-glucopyranos-3-yl}-D-lactoyl]-L-alanyl-D-isoglutamine methylester] | 0 O.D 415 nm | 0.052 ± 0.004 O.D 415 nm | 0.075 ± 0.001 O.D 415 nm | 0.370 ± 0.005 O.D 415 nm | 0.360 ± 0.001 O.D 415 nm | 0 O.D 415 nm | 0.035 ± 0.007 O.D 415 nm | 0.050 ± 0.004 O.D 415 nm | 0.481 ± 0.006 O.D 415 nm | 0.375 ± 0.008 O.D 415 nm
3 | CCCCCCCCCCCCCCCCCC(=O)OC[C@H]1O[C@@H](SC(=O)C[C@@H](CCCCCCCCCCC)OC(=O)CCCCCCCCCCCCCCCCC)[C@H](NC(C)=O)[C@@H](O[C@H](C)C(=O)N[C@@H](C)C(=O)N[C@H](CCC(=O)O)C(N)=O)[C@@H]1O [Example 24, N-[2-0-{2-Acetamido-2,3-dideoxy-6-0-octadecanoyl-1-S-((3R)-3-octadecanoyloxytetradecanoyl)-1-thio-β-D-glucopyranos-3-yl}-D-lactoyl]-L-alanyl-D-isoglutamine] | 0.006 ± 0.001 O.D 415 nm | 0.085 ± 0.005 O.D 415 nm | 0.113 ± 0.007 O.D 415 nm | 0.771 ± 0.003 O.D 415 nm | 0.791 ± 0.004 O.D 415 nm | 0.007 ± 0.001 O.D 415 nm | 0.034 ± 0.001 O.D 415 nm | 0.050 ± 0.000 O.D 415 nm | 0.579 ± 0.007 O.D 415 nm | 0.513 ± 0.011 O.D 415 nm
4 | CCCCCCCCCCCCCCCCCC(=O)O[C@H](CCCCCCCCCCC)CC(=O)O[C@H]1O[C@H](CO)[C@@H](O)[C@H](O[C@H](C)C(=O)N[C@@H](C)C(=O)N[C@H](CCC(=O)OC)C(N)=O)[C@H]1NC(C)=O [Example 21, N-[2-0-{2-Acetamido-2,3-dideoxy-1-0-((3R)-3-octadecanoyloxytetradecanoyl)-α-D-glucopyranos-3-yl}-D-lactoyl]-L-alanyl-D-isoglutamine methylester] | 0 O.D 415 nm | 0.060 ± 0.001 O.D 415 nm | 0.097 ± 0.002 O.D 415 nm | 0.748 ± 0.003 O.D 415 nm | 0.758 ± 0.012 O.D 415 nm | 0.006 ± 0.004 O.D 415 nm | 0.038 ± 0.000 O.D 415 nm | 0.058 ± 0.007 O.D 415 nm | 0.517 ± 0.006 O.D 415 nm | 0.498 ± 0.011 O.D 415 nm
5 | CCCCCCCCCCCCCCCCCC(=O)O[C@H](CCCCCCCCCCC)CC(=O)S[C@@H]1O[C@H](CO)[C@@H](O)[C@H](O[C@H](C)C(=O)N[C@@H](C)C(=O)N[C@H](CCC(=O)OC)C(N)=O)[C@H]1NC(C)=O [Example 23, N-[2-0-{2-Acetamido-2,3-dideoxy-1-S-((3R)-3-octadecanoyloxytetradecanoyl)-1-thio-β-D-glucopyranos-3-yl}-D-lactoyl]-L-alanyl-D-isoglutamine methylester] | 0.008 ± 0.005 O.D 415 nm | 0.096 ± 0.001 O.D 415 nm | 0.183 ± 0.004 O.D 415 nm | 0.949 ± 0.006 O.D 415 nm | 1.030 ± 0.003 O.D 415 nm | 0.004 ± 0.001 O.D 415 nm | 0.051 ± 0.003 O.D 415 nm | 0.092 ± 0.004 O.D 415 nm | 0.639 ± 0.003 O.D 415 nm | 0.626 ± 0.008 O.D 415 nm
6 | CCCCCCCCCCCCCCCCCCCCCCCC(=O)O[C@H](CCCCCCCCCCC)CC(=O)S[C@@H]1O[C@H](CO)[C@@H](O)[C@H](O[C@H](C)C(=O)N[C@@H](C)C(=O)N[C@H](CCC(=O)OC)C(N)=O)[C@H]1NC(C)=O [Example 27, N-[2-0-{2-Acetamido-2,3-dideoxy-1-S-((3R)-3-tetracosanoyloxytetradecanoyl)-1-thio-β-D-glucopyranos-3-yl}-D-lactoyl]-L-alanyl-D-isoglutamine methylester] | 0 O.D 415 nm | 0.110 ± 0.003 O.D 415 nm | 0.161 ± 0.003 O.D 415 nm | 0.751 ± 0.004 O.D 415 nm | 0.805 ± 0.008 O.D 415 nm | 0.003 ± 0.003 O.D 415 nm | 0.031 ± 0.002 O.D 415 nm | 0.052 ± 0.000 O.D 415 nm | 0.580 ± 0.016 O.D 415 nm | 0.573 ± 0.013 O.D 415 nm
7 | CCCCCCCCCCCCCCCCCC(=O)OC[C@H]1O[C@@H](SC(=O)C[C@@H](CCCCCCCCCCC)OC(=O)CCCCCCCCCCCCCCC)[C@H](NC(C)=O)[C@@H](O[C@H](C)C(=O)N[C@@H](C)C(=O)N[C@H](CCC(=O)OC)C(N)=O)[C@@H]1O [Example 20, N-[2-0-{2-Acetamido-2,3-dideoxy-6-0-octadecanoyl-1-S-((3R)-3-hexadecanoyloxytetradecanoyl)-1-thio-β-D-glucopyranos-3-yl}-D-lactoyl]-L-alanYl-D-isoglutamine methylester] | 0.001 ± 0.001 O.D 415 nm | 0.071 ± 0.001 O.D 415 nm | 0.110 ± 0.008 O.D 415 nm | 0.840 ± 0.011 O.D 415 nm | 0.857 ± 0.023 O.D 415 nm | 0.002 ± 0.001 O.D 415 nm | 0.044 ± 0.005 O.D 415 nm | 0.056 ± 0.003 O.D 415 nm | 0.814 ± 0.018 O.D 415 nm | 0.708 ± 0.002 O.D 415 nm
